From ChEMBL document CHEMBL3885881, “DrugMatrix”

Species: Rattus norvegicus
Assay: DrugMatrix - Regimen: Daily Repeat
Format: toxicity, organism-based, Sprague-Dawley
Set-up: regimen Daily Repeat, gender Male, age 6-8 weeks
Details: in vivo, po, route oral GAVAGE, […]; for ABSOLUTE BASOPHIL / ABSOLUTE EOSINOPHIL / ABSOLUTE LYMPHOCYTE / ABSOLUTE MONOCYTE / ABSOLUTE SEGMENTED NEUTROPHIL / BASOPHIL / EOSINOPHIL / ERYTHROCYTE COUNT / HEMATOCRIT / HEMOGLOBIN / LEUKOCYTE COUNT / LYMPHOCYTE / MEAN CORPUSCULAR HEMOGLOBIN / MEAN CORPUSCULAR HEMOGLOBIN CONCENTRATION / MEAN CORPUSCULAR VOLUME / MONOCYTE / NEUTROPHIL / NUCLEATED RED BLOOD CELLS / PLATELET COUNT: tissue Blood; for ALANINE AMINOTRANSFERASE / ALBUMIN / ALKALINE PHOSPHATASE / ASPARTATE AMINOTRANSFERASE / BLOOD UREA NITROGEN / CARBON DIOXIDE / CHLORIDE / CHOLESTEROL / CREATINE PHOSPHOKINASE / CREATININE / GLUCOSE / LACTATE DEHYDROGENASE / LIPASE / PHOSPHORUS / POTASSIUM / SODIUM / TOTAL BILIRUBIN / TOTAL PROTEIN / URIC ACID: tissue Plasma
[1] = 47 mg/kg, 120 h, dose level Low, time 5 day
[2] = 250 mg/kg, 72 h, dose level High, time 3 day
[3] = 250 mg/kg, 120 h, dose level High, time 5 day

CC(=O)Nc1nnc(S(N)(=O)=O)s1 [ACETAZOLAMIDE]
ABSOLUTE BASOPHIL [1]: 0 CELLS/uL
ABSOLUTE EOSINOPHIL [1]: 0 CELLS/uL
ABSOLUTE LYMPHOCYTE [1]: 10200 CELLS/uL
ABSOLUTE MONOCYTE [1]: 261.33 CELLS/uL
ABSOLUTE SEGMENTED NEUTROPHIL [1]: 672 CELLS/uL
BASOPHIL [1]: 0%
EOSINOPHIL [1]: 0%
ERYTHROCYTE COUNT [1]: 5.43 x10E6/uL
HEMATOCRIT [1]: 33.83%
HEMOGLOBIN [1]: 13.43 G/DL
LEUKOCYTE COUNT [1]: 11.13 x10E3/uL
LYMPHOCYTE [1]: 91.67%
MEAN CORPUSCULAR HEMOGLOBIN [1]: 24.73 pg
MEAN CORPUSCULAR HEMOGLOBIN CONCENTRATION [1]: 39.7 G/DL
MEAN CORPUSCULAR VOLUME [1]: 62.3 fL
MONOCYTE [1]: 2.33%
NEUTROPHIL [1]: 6%
NUCLEATED RED BLOOD CELLS [1]: 0.33 /100WBC
PLATELET COUNT [1]: 1186.33 x10E3/uL
ALANINE AMINOTRANSFERASE [1]: 60.33 u/L
ALBUMIN [1]: 4.07 G/DL
ALKALINE PHOSPHATASE [1]: 448.67 u/L
ASPARTATE AMINOTRANSFERASE [1]: 74.67 u/L
BLOOD UREA NITROGEN [1]: 14 mg/dL
CARBON DIOXIDE [1]: 27.67 mmol/L
CHLORIDE [1]: 104 MEQ/L
CHOLESTEROL [1]: 61.33 mg/dL
CREATINE PHOSPHOKINASE [1]: 271.67 u/L
CREATININE [1]: 0.14 mg/dL
GLUCOSE [1]: 155 mg/dL
LACTATE DEHYDROGENASE [1]: 142 u/L
LIPASE [1]: 10.33 u/L
PHOSPHORUS [1]: 9.17 mg/dL
POTASSIUM [1]: 5.17 MEQ/L
SODIUM [1]: 145.83 MEQ/L
TOTAL BILIRUBIN [1]: 0.23 mg/dL
TOTAL PROTEIN [1]: 6.07 G/DL
URIC ACID [1]: 0.33 mg/dL
ABSOLUTE BASOPHIL [2]: 0 CELLS/uL
ABSOLUTE EOSINOPHIL [2]: 0 CELLS/uL
ABSOLUTE LYMPHOCYTE [2]: 8200.33 CELLS/uL
ABSOLUTE MONOCYTE [2]: 117.33 CELLS/uL
ABSOLUTE SEGMENTED NEUTROPHIL [2]: 382.33 CELLS/uL
BASOPHIL [2]: 0%
EOSINOPHIL [2]: 0%
ERYTHROCYTE COUNT [2]: 5.26 x10E6/uL
HEMATOCRIT [2]: 32.4%
HEMOGLOBIN [2]: 12.8 G/DL
LEUKOCYTE COUNT [2]: 8.7 x10E3/uL
LYMPHOCYTE [2]: 94.33%
MEAN CORPUSCULAR HEMOGLOBIN [2]: 24.33 pg
MEAN CORPUSCULAR HEMOGLOBIN CONCENTRATION [2]: 39.5 G/DL
MEAN CORPUSCULAR VOLUME [2]: 61.57 fL
MONOCYTE [2]: 1.33%
NEUTROPHIL [2]: 4.33%
NUCLEATED RED BLOOD CELLS [2]: 0 /100WBC
PLATELET COUNT [2]: 1163 x10E3/uL
ALANINE AMINOTRANSFERASE [2]: 77 u/L
ALBUMIN [2]: 3.83 G/DL
ALKALINE PHOSPHATASE [2]: 352.67 u/L
ASPARTATE AMINOTRANSFERASE [2]: 83.67 u/L
BLOOD UREA NITROGEN [2]: 11.67 mg/dL
CARBON DIOXIDE [2]: 29.67 mmol/L
CHLORIDE [2]: 101.67 MEQ/L
CHOLESTEROL [2]: 73.33 mg/dL
CREATINE PHOSPHOKINASE [2]: 296.33 u/L
CREATININE [2]: 0.37 mg/dL
GLUCOSE [2]: 157 mg/dL
LACTATE DEHYDROGENASE [2]: 154 u/L
LIPASE [2]: 11.33 u/L
PHOSPHORUS [2]: 9.67 mg/dL
POTASSIUM [2]: 4.85 MEQ/L
SODIUM [2]: 144.27 MEQ/L
TOTAL BILIRUBIN [2]: 0.2 mg/dL
TOTAL PROTEIN [2]: 5.67 G/DL
URIC ACID [2]: 0.33 mg/dL
ABSOLUTE BASOPHIL [3]: 0 CELLS/uL
ABSOLUTE EOSINOPHIL [3]: 64 CELLS/uL
ABSOLUTE LYMPHOCYTE [3]: 8180.67 CELLS/uL
ABSOLUTE MONOCYTE [3]: 154.33 CELLS/uL
ABSOLUTE SEGMENTED NEUTROPHIL [3]: 767.67 CELLS/uL
BASOPHIL [3]: 0%
EOSINOPHIL [3]: 0.67%
ERYTHROCYTE COUNT [3]: 5.67 x10E6/uL
HEMATOCRIT [3]: 35.23%
HEMOGLOBIN [3]: 13.9 G/DL
LEUKOCYTE COUNT [3]: 9.17 x10E3/uL
LYMPHOCYTE [3]: 89.33%
MEAN CORPUSCULAR HEMOGLOBIN [3]: 24.53 pg
MEAN CORPUSCULAR HEMOGLOBIN CONCENTRATION [3]: 39.47 G/DL
MEAN CORPUSCULAR VOLUME [3]: 62.1 fL
MONOCYTE [3]: 1.67%
NEUTROPHIL [3]: 8.33%
NUCLEATED RED BLOOD CELLS [3]: 0 /100WBC
PLATELET COUNT [3]: 1233.67 x10E3/uL
ALANINE AMINOTRANSFERASE [3]: 59 u/L
ALBUMIN [3]: 4.03 G/DL
ALKALINE PHOSPHATASE [3]: 354.67 u/L
ASPARTATE AMINOTRANSFERASE [3]: 71 u/L
BLOOD UREA NITROGEN [3]: 15 mg/dL
CARBON DIOXIDE [3]: 23.33 mmol/L
CHLORIDE [3]: 109.33 MEQ/L
CHOLESTEROL [3]: 66 mg/dL
CREATINE PHOSPHOKINASE [3]: 397 u/L
CREATININE [3]: 0.18 mg/dL
GLUCOSE [3]: 141.67 mg/dL
LACTATE DEHYDROGENASE [3]: 111.33 u/L
LIPASE [3]: 10.33 u/L
PHOSPHORUS [3]: 8.57 mg/dL
POTASSIUM [3]: 5.2 MEQ/L
SODIUM [3]: 146 MEQ/L
TOTAL BILIRUBIN [3]: 0.17 mg/dL
TOTAL PROTEIN [3]: 6.1 G/DL
URIC ACID [3]: 0.53 mg/dL
